Results taken from ChEMBL document CHEMBL1201862, “PubChem BioAssay data set” (2004).
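48-hour exposure; five concentrations; linearly interpolated endpoints. GI50 = concentration required for 50% inhibition of growth.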 Calls of active or inactive are those of the source. No stated cut-off is given here; in the data, active = GI50 up to about 1.1 µM and inactive = higher.

What was measured:
Assay in all cases: NCI tumour cell line growth inhibition, 48 h
T47D = test system: T47D
OVCAR-5 = test system: OVCAR-5
MDA-N = test system: MDA-N
OVCAR-4 = test system: OVCAR-4
UACC-257 = test system: UACC-257
EKVX = test system: EKVX
IGROV-1 = test system: IGROV-1
A498 = test system: A498
NCI-H522 = test system: NCI-H522
SF-295 = test system: SF-295
RPMI-8226 = test system: RPMI-8226
SR = test system: SR
Malme-3M = test system: Malme-3M
OVCAR-3 = test system: OVCAR-3
COLO 205 = test system: COLO 205
HT-29 = test system: HT-29
SK-MEL-5 = test system: SK-MEL-5
SW-620 = test system: SW-620
786-0 = test system: 786-0
SNB-75 = test system: SNB-75

Row | Compound | GI50 (T47D) | GI50 (OVCAR-5) | GI50 (MDA-N) | GI50 (OVCAR-4) | GI50 (UACC-257) | GI50 (EKVX) | GI50 (IGROV-1) | GI50 (A498) | GI50 (NCI-H522) | GI50 (SF-295) | GI50 (RPMI-8226) | GI50 (SR) | GI50 (Malme-3M) | GI50 (OVCAR-3) | GI50 (COLO 205) | GI50 (HT-29) | GI50 (SK-MEL-5) | GI50 (SW-620) | GI50 (786-0) | GI50 (SNB-75)
1 | CN1C/C(=C\c2cccs2)C2=NC(=S)NC(c3cccs3)C2C1 (stereo unspecified) | 24.9 µM (inactive) | > 100 µM (inactive) | 66.1 µM (inactive) | 29.5 µM (inactive) | 36.6 µM (inactive) | 56.4 µM (inactive) | 46.3 µM (inactive) | 61.8 µM (inactive) | 36.4 µM (inactive) | 42.8 µM (inactive) | 29.9 µM (inactive) | 18.2 µM (inactive) | 16 µM (inactive) | 76.4 µM (inactive) | 31.8 µM (inactive) | 68.7 µM (inactive) | 33.6 µM (inactive) | > 100 µM (inactive) | > 100 µM (inactive) | –
2 | CCN(CCCl)c1cccc(NC(=O)c2ccc(C(=O)Nc3cccc(CN(C)C)c3)cc2)c1 | 0.0412 µM (active) | 1.48 µM (inactive) | 0.05 µM (active) | 0.0344 µM (active) | 0.113 µM (active) | – | 0.0344 µM (active) | 0.136 µM (active) | < 0.01 µM (active) | 0.125 µM (active) | 0.267 µM (active) | 0.037 µM (active) | 0.049 µM (active) | – | 0.11 µM (active) | 0.0597 µM (active) | 0.0118 µM (active) | 0.034 µM (active) | 0.0239 µM (active) | 0.207 µM (active)
3 | CC(=O)OC1O[C@@H](C(C)(C)O)CC[C@@H]1[C@H]1CC[C@@]2(C)C3=C(CC[C@]12C)[C@@]1(C)C[C@@H](OC(=O)CC(C)(O)CC(=O)O)[C@H](OC(C)=O)C(C)(C)C1CC3 (stereo partly specified) | 19.8 µM (inactive) | 18.3 µM (inactive) | 19.2 µM (inactive) | 18 µM (inactive) | 17.5 µM (inactive) | 17.5 µM (inactive) | 19.2 µM (inactive) | 19.2 µM (inactive) | – | 17.5 µM (inactive) | 23.3 µM (inactive) | 23.4 µM (inactive) | 17.4 µM (inactive) | 18.6 µM (inactive) | – | 20.1 µM (inactive) | 19.2 µM (inactive) | 17.5 µM (inactive) | 19.3 µM (inactive) | –
4 | CCOC(=O)Cn1c2ccc(Br)cc2c2nc3ccccc3nc21 | > 100 µM (inactive) | > 100 µM (inactive) | > 100 µM (inactive) | – | > 100 µM (inactive) | – | 55.7 µM (inactive) | > 100 µM (inactive) | – | > 100 µM (inactive) | > 100 µM (inactive) | 88.7 µM (inactive) | – | > 100 µM (inactive) | > 100 µM (inactive) | > 100 µM (inactive) | > 100 µM (inactive) | > 100 µM (inactive) | > 100 µM (inactive) | > 100 µM (inactive)
5 | COC1OC(CBr)C(OC(c2ccccc2)(c2ccccc2)c2ccccc2)C(OC(c2ccccc2)(c2ccccc2)c2ccccc2)C1OC(c1ccccc1)(c1ccccc1)c1ccccc1 (stereo unspecified) | 22.6 µM (inactive) | 41 µM (inactive) | 74.3 µM (inactive) | 18.3 µM (inactive) | > 100 µM (inactive) | 17.5 µM (inactive) | 78.2 µM (inactive) | 78.2 µM (inactive) | 16 µM (inactive) | 42 µM (inactive) | 65.3 µM (inactive) | > 100 µM (inactive) | 33.8 µM (inactive) | 14.1 µM (inactive) | > 100 µM (inactive) | 96.6 µM (inactive) | 66.5 µM (inactive) | 64.1 µM (inactive) | 19.4 µM (inactive) | –
6 | O=C(O)c1ccccc1/C=C1/Nc2ccccc2C1=O | 51.8 µM (inactive) | > 100 µM (inactive) | > 100 µM (inactive) | 63.4 µM (inactive) | > 100 µM (inactive) | 60 µM (inactive) | 24.2 µM (inactive) | > 100 µM (inactive) | – | > 100 µM (inactive) | > 100 µM (inactive) | 66.5 µM (inactive) | > 100 µM (inactive) | > 100 µM (inactive) | > 100 µM (inactive) | 67.9 µM (inactive) | – | 57.5 µM (inactive) | > 100 µM (inactive) | > 100 µM (inactive)
7 | CC(=O)c1c2c(cc3c1CC1(C3)Cc3cc4c(c(C(C)=O)c3C1)CCCC4)CCCC2 | 62.2 µM (inactive) | > 100 µM (inactive) | 38.4 µM (inactive) | 53.2 µM (inactive) | 25.1 µM (inactive) | > 100 µM (inactive) | > 100 µM (inactive) | > 100 µM (inactive) | 74.6 µM (inactive) | > 100 µM (inactive) | 21.3 µM (inactive) | 16.3 µM (inactive) | > 100 µM (inactive) | 41.6 µM (inactive) | > 100 µM (inactive) | 63.2 µM (inactive) | 17.4 µM (inactive) | – | 45.6 µM (inactive) | –
8 | C=CCN1C[C@H](C)N([C@H](c2ccc(C(=O)NC(CC)CC)cc2)c2cccc(OC)c2)C[C@H]1C | 29 µM (inactive) | 59.6 µM (inactive) | 37.3 µM (inactive) | 46 µM (inactive) | 26.2 µM (inactive) | 79.4 µM (inactive) | 65.3 µM (inactive) | 21.7 µM (inactive) | 13.4 µM (inactive) | 39.8 µM (inactive) | – | 23.7 µM (inactive) | 20.4 µM (inactive) | 52.4 µM (inactive) | 17.9 µM (inactive) | 25.1 µM (inactive) | 17.9 µM (inactive) | 29.9 µM (inactive) | 34.6 µM (inactive) | > 100 µM (inactive)
9 | O=C1CCC2(CC1CC(Sc1ccccc1)Sc1ccccc1)OCCO2 (stereo unspecified) | 22.5 µM (inactive) | 72.4 µM (inactive) | 42.4 µM (inactive) | 56.1 µM (inactive) | 36.8 µM (inactive) | 61.8 µM (inactive) | 74.3 µM (inactive) | 74.3 µM (inactive) | 23.3 µM (inactive) | 52.6 µM (inactive) | 30 µM (inactive) | 26.4 µM (inactive) | 29.6 µM (inactive) | 30.6 µM (inactive) | 25.2 µM (inactive) | 61.4 µM (inactive) | 17.5 µM (inactive) | 49.4 µM (inactive) | 45.7 µM (inactive) | 80.4 µM (inactive)
10 | CCNC(=O)Cc1nc2c(N)ncnc2n1C1OC(CO)C(O)C1O (stereo unspecified) | 58.6 µM (inactive) | – | > 100 µM (inactive) | 23.5 µM (inactive) | > 100 µM (inactive) | > 100 µM (inactive) | > 100 µM (inactive) | > 100 µM (inactive) | > 100 µM (inactive) | > 100 µM (inactive) | > 100 µM (inactive) | > 100 µM (inactive) | > 100 µM (inactive) | > 100 µM (inactive) | 74 µM (inactive) | > 100 µM (inactive) | > 100 µM (inactive) | > 100 µM (inactive) | > 100 µM (inactive) | –
11 | C/C(=N\Nc1nc2cc(C(F)(F)F)ccc2s1)c1ccccn1 | 0.239 µM (active) | 2.47 µM (inactive) | 1.06 µM (active) | 0.321 µM (active) | 0.452 µM (active) | 0.0431 µM (active) | 0.123 µM (active) | 1.52 µM (inactive) | 0.111 µM (active) | 0.408 µM (active) | 0.402 µM (active) | 0.0624 µM (active) | 0.0622 µM (active) | 0.826 µM (active) | 0.0442 µM (active) | 0.0422 µM (active) | 0.338 µM (active) | 0.102 µM (active) | 0.34 µM (active) | 1.98 µM (inactive)
12 | CC(=O)OCC1OC(n2c(C)c(C)c(C)c(C#N)c2=S)C(OC(C)=O)C(OC(C)=O)C1OC(C)=O (stereo unspecified) | > 100 µM (inactive) | > 100 µM (inactive) | > 100 µM (inactive) | > 100 µM (inactive) | > 100 µM (inactive) | 26.2 µM (inactive) | > 100 µM (inactive) | > 100 µM (inactive) | 21.8 µM (inactive) | 14.8 µM (inactive) | – | > 100 µM (inactive) | > 100 µM (inactive) | > 100 µM (inactive) | > 100 µM (inactive) | > 100 µM (inactive) | > 100 µM (inactive) | > 100 µM (inactive) | 23.7 µM (inactive) | 80 µM (inactive)
13 | O=C(Nc1c(Cl)cc([N+](=O)[O-])cc1Cl)C(=O)C1C(=O)NC(=S)NC1=O | > 100 µM (inactive) | > 100 µM (inactive) | > 100 µM (inactive) | > 100 µM (inactive) | > 100 µM (inactive) | > 100 µM (inactive) | > 100 µM (inactive) | > 100 µM (inactive) | > 100 µM (inactive) | > 100 µM (inactive) | > 100 µM (inactive) | > 10 µM (inactive) | > 100 µM (inactive) | > 100 µM (inactive) | – | > 100 µM (inactive) | > 100 µM (inactive) | > 100 µM (inactive) | > 100 µM (inactive) | > 100 µM (inactive)
14 | CC(=O)Oc1ccc(C)c2c1[C@H]1CC[C@]3(C)[C@@H](OC(C)=O)CC[C@H]3[C@@H]1CC2 | 19.3 µM (inactive) | > 100 µM (inactive) | 18.5 µM (inactive) | – | 17.9 µM (inactive) | 15.5 µM (inactive) | 18.7 µM (inactive) | 17.6 µM (inactive) | 17.7 µM (inactive) | 23.9 µM (inactive) | 19.4 µM (inactive) | 34.1 µM (inactive) | 15.7 µM (inactive) | 18.2 µM (inactive) | – | 17.1 µM (inactive) | 19.5 µM (inactive) | 18.9 µM (inactive) | 21.3 µM (inactive) | 24.9 µM (inactive)
15 | O=[N+]([O-])c1ncc(N(CCO)CCO)s1 | 27.5 µM (inactive) | 78.5 µM (inactive) | 30.3 µM (inactive) | > 100 µM (inactive) | 25 µM (inactive) | > 100 µM (inactive) | – | 65.5 µM (inactive) | 16.4 µM (inactive) | > 100 µM (inactive) | 19.5 µM (inactive) | 43.8 µM (inactive) | 18.2 µM (inactive) | 65.6 µM (inactive) | 21.9 µM (inactive) | 49.7 µM (inactive) | – | 33.3 µM (inactive) | 34 µM (inactive) | 30.8 µM (inactive)
